From patent publication US6420381B1, “Naphthyridine derivatives” (Sumitomo Pharmaceuticals Company, Limited, priority 1998, dated 2002)
Structures can show the parent of a compound that is named as a salt.

Experiments:
ACAT [1] = experiment: Assay of ACAT inhibitory activity in a specimen prepared from rabbit liver; assay type: biochemical, New Zealand white rabbit; details: enzyme specimen from liver of cholesterol-fed rabbit, [1-14C]oleoyl-CoA
Procedure: 1. Assay of ACAT inhibitory activity in a specimen prepared from rabbit liver:
An enzyme specimen ACAT was prepared according to the method disclosed in the literature: J. Lipid. Research, 30, 681-690, 1989, from the liver of a New Zealand white rabbit, which had been fed with 1% cholesterol feed for one month. The ACAT activity was determined according to the method disclosed in the literature: J. Lipid Research, 24, 1127-1134, 1983, i.e., using radioactive [1-^14C]oleoyl-CoA and endogenous cholesterol contained in the liver microsome, and calculated from the radioactivity of the labeled cholesterol oleate.

ACAT [2] = target: T1, ACAT (Rattus norvegicus, UniProt O70536); experiment: Assay of ACAT inhibitory activity in a macrophage derived from rat peritoneal; assay type: cell-based; details: [9,10-3H]oleic acid
T1 construct: The rat peritoneal-derived macrophage was prepared; endogenous in cells; host or cells: rat peritoneal macrophages (primary)
T1 sequence (O70536 1-545): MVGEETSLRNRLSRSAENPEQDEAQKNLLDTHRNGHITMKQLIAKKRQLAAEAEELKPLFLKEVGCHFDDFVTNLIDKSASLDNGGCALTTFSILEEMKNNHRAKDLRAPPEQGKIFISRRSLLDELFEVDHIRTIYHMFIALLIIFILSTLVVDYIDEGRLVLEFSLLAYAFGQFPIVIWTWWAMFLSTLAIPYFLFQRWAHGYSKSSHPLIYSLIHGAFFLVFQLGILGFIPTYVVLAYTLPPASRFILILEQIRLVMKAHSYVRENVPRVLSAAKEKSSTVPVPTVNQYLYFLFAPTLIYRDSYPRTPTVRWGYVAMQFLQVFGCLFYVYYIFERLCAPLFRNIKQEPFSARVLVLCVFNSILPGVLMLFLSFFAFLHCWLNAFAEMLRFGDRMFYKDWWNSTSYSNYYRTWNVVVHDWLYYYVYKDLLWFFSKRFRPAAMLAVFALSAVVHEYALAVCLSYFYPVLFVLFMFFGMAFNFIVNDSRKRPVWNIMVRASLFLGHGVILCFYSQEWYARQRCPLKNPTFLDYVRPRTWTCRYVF
Procedure: 2. Assay of ACAT inhibitory activity in a macrophage derived from rat peritoneal:
The rat peritoneal-derived macrophage was prepared according to the method disclosed in the literature: Biochimica et Biophysica Acta, 1126, 73-80, 1992. The ACAT activity was determined by a modified method of the method disclosed in the above literature: Biochimica et Biophysica Acta, 1126, 73-80, 1992, i.e., using radioactive [9,10-^3H]oleic acid and exogenous cholesterol contained in the liposome which was re-constituted according to the method disclosed in the literature: Biochimica et Biophysica Acta, 1213, 127-134, 1994, and calculated from the radioactivity of the labeled cholesterolyl oleate.

Row | melting point [°C] | inhibition at 1 µM (ACAT [2]; 10^−6 M, read-out: ACAT inhibitory rate (%) 10^−6 M) [%] | ACAT inhibitory rate (%) 10^−6 M (ACAT [2]) [%] | Molecule | ACAT inhibitory rate (%) 10^−6 M (ACAT [1]) [%]
1 | 163 to 165 |  |  | CCCCn1c(=O)c(NC(=O)Nc2cc(CNC)ccc2C(C)(C)C)c(-c2cccc(OC)c2)c2cccnc21 (as salt: hydrochloride) [Example 31] | 
2 | 158 to 161 |  |  | CCCCn1c(=O)c(NC(=O)Nc2cc(CNCC)ccc2C(C)(C)C)c(-c2cccc(OC)c2)c2cccnc21 (as salt: hydrochloride) [Example 32] | 
3 |  | 97 |  | CCCCn1c(=O)c(NC(=O)Nc2cc(CN3CCOCC3)ccc2C(C)(C)C)c(-c2cccc(OC)c2)c2cccnc21 [Example 1, N-[1-butyl-4-(3-methoxyphenyl)-1,2-dihydro-2-oxo-1,8-naphthyridin-3yl]-N′-[2-tert-butyl-5-(morpholinomethyl)phenyl]urea] | 98
4 |  |  | 73 | N-[1-butyl-4-(3-methoxyphenyl)-1,2-dihydro-2-oxo-1,8-naphthyridin-3-yl]-N′-[2-tert-butyl-5-(1-pyrazolylmethyl)phenyl]urea [Example 19] | 99
5 | 174 to 175 |  |  | CCCCn1c(=O)c(NC(=O)Nc2cc(CN(C)C)ccc2C(C)(C)C)c(-c2cccc(OC)c2)c2cccnc21 (as salt: hydrochloride) [Example 30] | 
